How the values were obtained:
Assay type in all cases: cell-based
Staph. aureus Russell = test: standard MIC test, Staph. aureus Russell (DST agar+5% horse blood); conditions: Staphylococcus aureus
Proteus mirabilis 0977 = test: standard MIC test, Proteus mirabilis 0977 (DST agar+5% horse blood)
Ps aeruginosa A = test: standard MIC test, Ps aeruginosa A (DST agar+5% horse blood)
Strep. faecalis I = test: standard MIC test, Strep. faecalis I (DST agar+5% horse blood); conditions: Enterococcus faecalis
Proteus morganii I 580 = test: standard MIC test, Proteus morganii I 580 (DST agar+5% horse blood); conditions: Morganella morganii, I580
[1] = tested on: Salmonella typhimurium CT10; test: standard MIC test, Salmonella typhimurium CT10 (DST agar+5% horse blood); conditions: Salmonella enterica
Serratia marcescens US20 = test: standard MIC test, Serratia marcescens US20 (DST agar+5% horse blood)
Proteus rettgeri WM 16 = test: standard MIC test, Proteus rettgeri WM 16 (DST agar+5% horse blood); conditions: Providencia rettgeri, WM16
Citrobacter freundii E8 = test: standard MIC test, Citrobacter freundii E8 (DST agar+5% horse blood)
Klebsiella aerogenes A = test: standard MIC test, Klebsiella aerogenes A (DST agar+5% horse blood)
Enterobacter cloacae M 1 = test: standard MIC test, Enterobacter cloacae M 1 (DST agar+5% horse blood); conditions: M1
Proteus vulgaris WO 91 = test: standard MIC test, Proteus vulgaris WO 91 (DST agar+5% horse blood); conditions: WO91
E. coli 0111 = test: standard MIC test, E. coli 0111 (DST agar+5% horse blood); conditions: Escherichia coli
Shigella sonnei MB 11967 = test: standard MIC test, Shigella sonnei MB 11967 (DST agar+5% horse blood); conditions: MB11967
Staph. aureus 1517 = test: standard MIC test, Staph. aureus 1517 (DST agar+5% horse blood); conditions: Staphylococcus aureus
Staph. aureus Oxford = test: standard MIC test, Staph. aureus Oxford (DST agar+5% horse blood); conditions: Staphylococcus aureus

**Q.** `CCSC(C)[C@H]1C(=O)N2C(C(=O)[O-])=C(S/C=C/NC(C)=O)C[C@H]12.[Na+]` (stereo partly drawn) [e52, Sodium (5R,6R)-3-[(E)-2-acetamidoethenylthio]-6-(-1-ethylthio-ethyl)-7-oxo-1-azabicyclo[3.2.0]hept2-ene-2-carboxylate] was tested. Which MIC (Staph. aureus Russell) did it give?
**A.** Its MIC is 0.8 mg/L.

**Q.** And the MIC (Proteus mirabilis 0977)?
**A.** The MIC was 12.5 mg/L.

**Q.** What about the MIC (Ps aeruginosa A) of the same compound?
**A.** The MIC was 100 mg/L.

**Q.** What about the MIC (Strep. faecalis I) of the same compound?
**A.** Its MIC is 50 mg/L.

**Q.** And the MIC (Proteus morganii I 580)?
**A.** Its MIC is 12.5 mg/L.

**Q.** And the MIC [1]?
**A.** Its MIC is 6.25 mg/L.

**Q.** And the MIC (Serratia marcescens US20)?
**A.** Its MIC is 6.25 mg/L.

**Q.** What about the MIC (Proteus rettgeri WM 16) of the same compound?
**A.** Its MIC is 6.25 mg/L.

**Q.** What about the MIC (Citrobacter freundii E8) of the same compound?
**A.** Its MIC is 3.1 mg/L.

**Q.** What about the MIC (Klebsiella aerogenes A) of the same compound?
**A.** The MIC was 0.8 mg/L.

**Q.** What about the MIC (Enterobacter cloacae M 1) of the same compound?
**A.** Its MIC is 12.5 mg/L.

**Q.** What about the MIC (Proteus vulgaris WO 91) of the same compound?
**A.** The MIC was 6.25 mg/L.

**Q.** What about the MIC (E. coli 0111) of the same compound?
**A.** The MIC was 3.1 mg/L.

**Q.** What about the MIC (Shigella sonnei MB 11967) of the same compound?
**A.** Its MIC is 3.1 mg/L.

**Q.** What about the MIC (Staph. aureus 1517) of the same compound?
**A.** Its MIC is 6.25 mg/L.

**Q.** What about the MIC (Staph. aureus Oxford) of the same compound?
**A.** Its MIC is 0.8 mg/L.

From patent publication US4278686A, “Carbapenum derivatives, a process for their preparation and their use in pharmaceutical compositions and intermediates” (Beecham Group Limited, priority 1978, dated 1981)
